Assay results: US11155576B2, “Synthetic peptides, enzymatic formation of pericellular hydrogels/nanofibrils, and methods of use” (BRANDEIS UNIVERSITY, priority 2014, dated 2021)

What was measured:
[1] = test system: HeLa cells; experiment: LC-MS composition of pericellular hydrogel/nanofibrils and suspension medium of HeLa cells; format: in vitro ADME, human
[2] = test system: secretory phosphatases present in HeLa cell conditioned medium; experiment: Hydrogelation in HeLa cell conditioned medium; format: biochemical, human; conditions: 48 hours
Method: 2×10^5 of cells in exponential growth phase were seeded in a 35 mm Petri dish with 1 mL complete culture medium. Following overnight incubation, 1 mL of new medium was replaced and incubated for 24 h at 5% CO2, 37° C. The medium was next removed and centrifuged at 10,000 rpm for 5 minutes. The suspension was placed into a 1.5 mL Eppendorf® tube and stored at −20° C. Stored conditioned medium was thawed and warmed to 37° C. in water bath immediately before use.
HeLa cell conditioned medium (“CM”) dephosphorylates D-2a to form D-2b nanofibrils.

[3] = test system: HeLa cells; experiment: Negative stained TEM of pericellular hydrogel on HeLa cells; format: physicochemical, human; conditions: HeLa cells treated with 280 μM D-2a
Method: Carbon coated copper grids were glow-discharged to increase their hydrophilicity prior to use. Pericellular hydrogel/nanofibrils were obtained by incubating D-2a at 280 μM with HeLa cells for 2 hours. Cell culture medium was removed in order to expose the pericellular hydrogel. The carbon coated side of the grid was gently pressed onto the pericellular hydrogel for 1 second. Next, the sample-loaded surface was washed using a drop of ddH2O. To remove excess water from the grid, the edge of the grid was immediately tilted and blotted three times against a filter paper. The grid was stained by letting the grid touch a drop of 2.0% (w/v) uranyl acetate with the sample-loaded surface. Excessive stain solution was removed by gently touching the grid with a drop of ddH2O. The grid was then dried by touching the edge of the grid with a filter paper for 3 times. The grid was air dried for a few minutes and examined immediately.
That is, the nanofibrils form nanonets. Similar to the nanofibrils of D-2b formed by the addition of ALP into the solution of D-2a in PBS buffer (FIG. 7), these cell-surface nanofibrils entangle with each other to form the matrices of the hydrogel.

[4] = test system: HeLa cells; experiment: Confocal microscopy, Congo red/DAPI staining, HeLa; format: cell-based, human; conditions: 280 μM, 12 hours
Method: (§1) Cells in exponential growth phase were seeded in a glass bottomed culture chamber at 2×10^4 cells/well. Cells were allowed to attach for 24 hours at 37° C., 5% CO2. The culture medium was removed, and replaced with culture medium containing D-2a at 280 μM. Following 12 hours of incubation, cells were washed 3 times with PBS prior to being stained with 0.1 mg/mL Congo red and 0.6 μM DAPI in PBS buffer (30 minutes at 37° C. in the dark). Next, cells were rinsed three times with PBS, and then kept in PBS for imaging.
Pericellular nanofibrils and cellular nuclei can be visualized using Congo red and DAPI, respectively (Kapuscinski, Biotech. Histochem. 70:220-233 (1995); Binder et al., Angew. Chem. Int. Ed. 45:7324-7328 (2006), each of which is hereby incorporated by reference in its entirety).

[5] = test system: Ect1/E6E7 cells; experiment: Confocal microscopy, Congo red/DAPI staining, Ect1/E6E7; format: cell-based, human; conditions: 560 μM, 12 hours
Method: as §1, with “The culture medium was removed, and replaced with culture medium containing D-2a at 280 μM.” left out
Ect1/E6E7 cells (immortalized normal human cervical epithelial cells, which have same tissue and organ origins as HeLa cells) were treated with the same procedure as described for HeLa cells above. […] The difference of hydrogel/nanonets formation by D-2a conversion to D-2b on HeLa cells and Ect1/E6E7 cells agrees with the notion that HeLa cells have higher levels of phosphatase activity than Ect1/E6E7 cells (FIG. 9).

[6] = test system: phosphatases; experiment: Phosphatase activity assay of gel, suspension and control medium of HeLa cells; format: cell-based, human; conditions: HeLa cells treated with 560 μM D-2a, after removing the hydrogel
Method: Phosphatase activity was evaluated by the alkaline phosphatase assay using the Abcam Alkaline Phosphatase Assay Kit following the supplied protocol. In brief, 50 μL of 5 mM pNPP solution in assay buffer was mixed with 80 μL of the sample solutions in 96 well plate. The mixed solution was incubated at 25° C., protected from light. 20 μL of stop solution was added to each test and the OD at 405 nm of the solution was measured in a microplate reader.
To verify whether the pericellular hydrogel/nanonets block the entry of secretory proteins/enzymes into the culture medium, the amount of phosphatases in four experimental samples was evaluated: blank medium (Blank), medium incubated with untreated HeLa cells (Control), the pericellular hydrogel from HeLa cells treated with 560 μM D-2a for 12 hours (Gel), and the suspension of the medium of HeLa cells treated with D-2a after removing the hydrogel (Suspension). The amount of phosphatases accumulated in the Gel is about 27 times higher than that found in the Control (FIG. 3B). […] In other words, the pericellular hydrogel/nanonets largely block cellular mass exchange between the cells and their environment.

[7] = Cell viability assay (MTT), Ect1/E6E7; format: cell-based; conditions: human, Ect1/E6E7 cells, read-out: Cells remaining viable
Method: Cells in exponential growth phase were seeded in a 96 well plate at a concentration of 2×10^4 cells/well. The cells were allowed to attach to the wells for 24 hours at 37° C., 5% CO2. The culture medium was removed and 100 μL culture medium containing compounds (immediately diluted from fresh prepared stock solution of 10 mM) at gradient concentrations (0 μM as the control) was placed into each well. After culturing at 37° C., 5% CO2 for 48 hours, each well was added by 10 μL of 5 mg/mL MTT (3-(4,5-dimethylthiazoL-2-yl)-2,5-diphenyltetrazolium bromide), and the plated cells were incubated in the dark for 4 hours. 100 μL 10% SDS with 0.01M HCl was added to each well to stop the reduction reaction and to dissolve the purple. After overnight incubation of the cells at 37° C., the OD at 595 nm of the solution was measured in a microplate reader. Data represent the mean±standard deviation of three independent experiments.

[8] = test system: Alkaline-phosphatase (“ALP”); conditions: D-2a 0.20 wt %/2.77 mM
Text: […] Scale bar=100 nm.
Napthalene capped tripeptide precursor molecule D-2a and hydrogelator molecule D-2b, synthesized according to Yang et al. (Small 3:558-562 (2007), which is hereby incorporated by reference in its entirety), are comprised of the tripeptide D-Phe-D-Phe-D-Tyr (FIG. 1B). The D-Tyr of D-2a is phosphorylated (FIG. 1B).

[9] = HeLa cells incubated with precursor at 560 μM at 37° C. for 12 hours

O=C(Cc1ccc2ccccc2c1)N[C@H](Cc1ccccc1)C(=O)N[C@H](Cc1ccccc1)C(=O)N[C@H](Cc1ccc(OP(=O)(O)O)cc1)C(=O)O [D-2a, Nap-D-Phe-D-Phe-D-Tyr(PO3H2)]
D-2b in pericellular hydrogel [1, 9]: 2053.9 µM | D-2b in suspension medium [1, 9]: 502.5 µM | Concentration of D-2b in the hydrogel (LC-MS) ([1]; hydrogel of FIG. 2A, HeLa monolayers treated with 500 μM D-2a as printed): approximately 2.05 mM | Hydrogel formation in HeLa cell conditioned medium ([2]; 140 μM): fails to form a hydrogel | Hydrogel formation in HeLa cell conditioned medium ([2]; 280 μM): completely transforms from a solution to a hydrogel | Hydrogel formation in HeLa cell conditioned medium ([2]; 560 μM): completely transforms from a solution to a hydrogel | Diameter of nanofibrils of the pericellular hydrogel [3]: about 20 nm | Congo red fluorescence on cells [4]: fluorescence (red) that outlines the cell shape | DAPI entry into cells [4]: DAPI is unable to enter | Congo red fluorescence on cells [5]: hardly display any red fluorescence | DAPI entry into cells [5]: DAPI stains the nuclei | Amount of phosphatases in the Suspension relative to the Control [6]: significantly lower than that in the Control | viability at 48 h, 280 µM [7]: > 60% | Hydrogel formation after ALP-catalyzed dephosphorylation [8]: self assembles to form the nanofibrils of a hydrogel
